This note sets out measurements from patent US11207303B2, “Therapeutic agent for fibrodysplasia ossificans progressiva” (Kyoto University, priority 2015, dated 2021).

Structures are written as SMILES.

This assay deals with mesenchymal stem cell-like cells derived from iPS cells established from a FOP patient (ACVR1 R206H). The assay can be described thus: Activin-A-induced chondrogenic differentiation of FOP patient-derived cells (sulfated glycosaminoglycan quantification). It is filed as cell-based. The conditions noted are these: 100 ng/mL human activin-A, compound 0.01 to 100 nM, six days, P<0.0001 at 0.1-100 nM rapamycin, 1-100 nM everolimus or temsirolimus vs activin-A only. From the text:
According to the method of Yamanaka et. al., (Cell, 2007, 131 (5), […]), iPS cells derived from a FOP patient (referred to as “patient-derived iPS cells” in some cases hereafter) were established. […] This mutation is a mutation that replaces the 206th arginine residue into a histidine residue in the amino acid sequence of ACVR1 (the amino acid sequence as set forth in SEQ ID NO:2). In addition, with a view toward using as a control, the mutation of the ACVR1 gene described above was corrected to the normal type (the wild type) by the gene correction with a BAC (Bacterial Artificial Chromosome) knock-in vector, thus establishing corrected iPS cells which may be referred to as “gene-corrected (rescued) iPS cell clone” in some cases hereafter.
The patient-derived iPS cells were cultured on a Matrigel coated plate [manufactured by Becton, Dickinson and Company; trade name, Growth Factor Reduced (GFR) BD MATRIGEL (registered trademark)] in mTeSR1 (manufactured by STEMCELL Technologies Inc.) under a feeder-free condition for two days. […]
These mesenchymal stem cell-like cells were cultured under a condition of a chondrogenic induction medium according to the method of Umeda (Sci. Rep, 2012, 2, 455) for six days and differentiated into chondrocytes. […] Also, compounds for which their inhibitory effect against the chondrogenic differentiation were to be evaluated (concentrations of from 0.01 to 100 nM) were added simultaneously with human activin-A (referred to as “activin-A” in some cases hereafter). […] The degree of differentiation into chondrocytes was measured with a quantification kit for sulfated glycosaminoglycan (manufactured by Biocolor Inc.; trade name, Blyscan Glycosaminoglycan Assay Kit). […]

For the molecule `CO[C@H]1C[C@@H]2CC[C@@H](C)[C@@](O)(O2)C(=O)C(=O)N2CCCC[C@H]2C(=O)O[C@H]([C@H](C)C[C@@H]2CC[C@@H](OP(C)(C)=O)[C@H](OC)C2)CC(=O)[C@H](C)/C=C(\C)[C@@H](O)[C@@H](OC)C(=O)[C@H](C)C[C@H](C)/C=C/C=C/C=C/1C` [ridaforolimus], the “chondrogenic differentiation (amount of sulfated glycosaminoglycan)” value (“chondrogenic differentiation” below) is reported as “suppressed the chondrogenic differentiation”.

For the molecule `CO[C@H]1C[C@@H]2CC[C@@H](C)[C@@](O)(O2)C(=O)C(=O)N2CCCC[C@H]2C(=O)O[C@H]([C@H](C)C[C@@H]2CC[C@@H](OCCO)[C@H](OC)C2)CC(=O)[C@H](C)/C=C(\C)[C@@H](O)[C@@H](OC)C(=O)[C@H](C)C[C@H](C)/C=C/C=C/C=C/1C` [everolimus], the “chondrogenic differentiation” value is “suppressed the chondrogenic differentiation”.

Regarding `CO[C@H]1C[C@@H]2CC[C@@H](C)[C@@](O)(O2)C(=O)C(=O)N2CCCC[C@H]2C(=O)O[C@H]([C@H](C)C[C@@H]2CC[C@@H](OC(=O)C(C)(CO)CO)[C@H](OC)C2)CC(=O)[C@H](C)/C=C(\C)[C@@H](O)[C@@H](OC)C(=O)[C@H](C)C[C@H](C)/C=C/C=C/C=C/1C` [temsirolimus], the “chondrogenic differentiation” value is reported as “suppressed the chondrogenic differentiation”.
